Columns and labels:
[1] = target: S. aureus Alpha hemolysin (Staphylococcus aureus, UniProt P09616); experiment: cell-based
[2] = target: hemolysin alpha from Staphylococcus aureus (Staphylococcus aureus, UniProt P09616); experiment: cell-based
Chain of hemolysin alpha from Staphylococcus aureus (P09616 27-319 limits assumed): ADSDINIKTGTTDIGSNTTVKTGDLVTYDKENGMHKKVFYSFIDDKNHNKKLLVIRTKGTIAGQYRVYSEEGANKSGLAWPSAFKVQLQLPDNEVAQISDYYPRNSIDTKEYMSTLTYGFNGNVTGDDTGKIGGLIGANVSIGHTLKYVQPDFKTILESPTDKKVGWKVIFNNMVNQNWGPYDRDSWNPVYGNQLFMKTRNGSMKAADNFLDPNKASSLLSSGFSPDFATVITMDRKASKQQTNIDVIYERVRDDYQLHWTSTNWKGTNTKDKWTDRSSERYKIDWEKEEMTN

Chain of S. aureus Alpha hemolysin (P09616 27-319 limits assumed): as above

Structure (SMILES)	IC50 [1] [nM]	IC50 [2] [nM]
Cc1cc2[nH]c(=O)c(=O)[nH]c2nc1S(=O)(=O)Nc1ccc(-c2ccc(F)cc2)c(Cl)c1 [Compound 9, N-(2-chloro-4′-fluoro-[1,1′-biphenyl]-4-yl)-7-methyl-2,3-dioxo-1,2,3,4-tetrahydropyrido[2,3-b]pyrazine-6-sulfonamide]	100 to 1000	< 30
Cc1nc2cc(-c3ncc(NS(=O)(=O)c4ccc5[nH]c(=O)c(=O)[nH]c5n4)cc3Cl)ccc2o1 [Compound 31, N-(5-chloro-6-(2-methylbenzo[d]oxazol-5-yl)pyridin-3-yl)-2,3-dioxo-1,2,3,4-tetrahydropyrido[2,3-b]pyrazine-6-sulfonamide]	1000 to 6000	100 to 1000
Cc1cc2[nH]c(=O)c(=O)[nH]c2nc1S(=O)(=O)Nc1ccc(-c2cncc(Cl)c2)c(Cl)c1 [Compound 11, N-(3-chloro-4-(5-chloropyridin-3-yl)phenyl)-7-methyl-2,3-dioxo-1,2,3,4-tetrahydropyrido[2,3-b]pyrazine-6-sulfonamide]	100 to 1000	100 to 1000
Cc1cc2[nH]c(=O)c(=O)[nH]c2nc1S(=O)(=O)Nc1ccc(C2CCC2)cc1 [Compound 21, N-(4-cyclobutylphenyl)-7-methyl-2,3-dioxo-1,2,3,4-tetrahydropyrido[2,3-b]pyrazine-6-sulfonamide]	30 to 100	< 30

Source: US20260217703A1, “INHIBITORS OF a-HEMOL YSIN OF STAPHYLOCOCCUS AUREUS” (HELMHOLTZ-ZENTRUM FÜR INFEKTIONSFORSCHUNG GMBH, priority 2022, published 2026)
